Laboratory results reported in patent publication US6376510B1, “Neuromuscular relaxants” (Newlaxant LLC, priority 1997, dated 2002).

Assays:
[1] = test system: anesthetized cats (evoked responses of anterior tibial muscle); test: animal or person; conditions: for ED50 / RI (recovery index) / Onset: cat; for ED50: intravenous dose causing 50% neuromuscular block; for RI (recovery index): spontaneous recovery, 25-75% neuromuscular response; for Onset: time to 80-85% neuromuscular block; for ΔBP (change in arterial blood pressure) / ΔH (change in heart rate) / VB (vagal block): in vivo
Excerpt: a) Adult, male albino rats were anesthetized with pentobarbital injected intraperitoneally. The trachea was cannulated for artificial respiration via a small animal respirator. The carotid artery was cannulated for recording blood pressure via a transducer and heart rate by a cardiotachograph on a polygraph. One external jugular vein was cannulated for i.v. drug administration. Neuromuscular function was monitored by electromyography, recording evoked responses from the anterior tibial muscle as a result of supramaximal nerve stimuli consisting of single or “train-of-four” rectangular pulses of 0.1-0.2 msec duration every 10-12 seconds, delivered to the sciatic or common peroneal nerve by a laboratory nerve stimulator. Another mode of stimulation included repeated single stimuli delivered at 0.1 Hz or 1 Hz. […] The agents were dissolved in physiologic saline and injected intravenously at appropriate time intervals. The intensity, onset, and duration of neuromuscular block and its type were determined with each agent. Through administering several doses, the doses corresponding to 50%, 80% and 90% neuromuscular block were determined. All agents were compared with selected standard neuromuscular blocking compounds, e.g. succinylcholine, pancuronium, mivacurium, or rocuronium.
(§1) Onset=time in minutes to 80-85% neuromuscular block.
(§2) RI=recovery index, minutes, spontaneous recovery, 25-75% neuromuscular response.
(§3) VB=vagal block, %, at 80-85% neuromuscular blocking dose.
ΔHR=change in heart rate, %, at 80-85% neuromuscular blocking dose.
ΔBP=change in arterial blood pressure, %, at 80-85% neuromuscular blocking dose.
b) Adult cats were anesthetized with a mixture of 70 mg/kg alpha chloralose and 0.5 g/kg ethylurethane intraperitoneally. One thigh was fixed in a vertical position by means of a pin at the lower end of the femur. Needle electrodes were placed on the sciatic or the common peroneal nerve. A tendon of the anterior tibial muscle was attached to a force transducer and the muscle responses evoked, as described under a), were recorded. Both electromyographic and mechanomyographic responses can be quantified. Blood pressure and heart rate changes were recorded from appropriately cannulated arteries via a blood pressure transducer and cardiotachograph.

rabbits = test: In vivo neuromuscular block and cardiovascular side effects, rabbit (Example 8, Table 7); conditions: for ΔBP (change in arterial blood pressure) / ΔH (change in heart rate): in vivo; for ED50: intravenous dose causing 50% neuromuscular block; for RI (recovery index): spontaneous recovery, 25-75% neuromuscular response; for Onset: time to 80-85% neuromuscular block
[2] = test system: anesthetized juvenile pigs; test: animal or person; assay type: in vivo; conditions: pig; for VB (vagal block) / ΔBP (change in arterial blood pressure) / ΔH (change in heart rate): in vivo; for ED50: intravenous dose causing 50% neuromuscular block; for RI (recovery index): spontaneous recovery, 25-75% neuromuscular response; for Onset: time to 80-85% neuromuscular block
Procedure, shortened: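 Electromyographic and mechanomyographic responses quantified. Monkeys sedated with intramuscular ketamine, then general anesthesia with intravenous pentobarbital and propofol; juvenile pigs induced with inhaled halothane.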

dogs = test: animal or person; assay type: in vivo; conditions: dog; for ΔBP (change in arterial blood pressure) / ΔH (change in heart rate): in vivo; for ED50: intravenous dose causing 50% neuromuscular block; for RI (recovery index): spontaneous recovery, 25-75% neuromuscular response; for Onset: time to 80-85% neuromuscular block
anesthetized monkeys = test: In vivo neuromuscular block and cardiovascular side effects, monkey (Example 8, Table 6); conditions: for ΔBP (change in arterial blood pressure) / ΔH (change in heart rate): in vivo; for ED50: intravenous dose causing 50% neuromuscular block; for RI (recovery index): spontaneous recovery, 25-75% neuromuscular response; for Onset: time to 80-85% neuromuscular block
Excerpt: Both electromyographic and mechanomyographic responses can be quantified.
The techniques described under a) and b) were employed in other species as needed with the modification that juvenile pigs were initially anesthetized with inhalation of halothane (Table 5) and monkeys were initially sedated with intramuscular ketamine injections prior to inducing and maintaining general anesthesia using pentobarbital and propofol administered intravenously (Table 6).

[3] = test system: anesthetized rats (evoked responses of anterior tibial muscle); test: In vivo neuromuscular block and cardiovascular side effects, anesthetized rat (Example 8, Table 3); conditions: rat; for VB (vagal block) / ΔBP (change in arterial blood pressure) / ΔH (change in heart rate): in vivo; for ED50: intravenous dose causing 50% neuromuscular block; for RI (recovery index): spontaneous recovery, 25-75% neuromuscular response; for Onset: time to 80-85% neuromuscular block
Procedure, shortened: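 Pentobarbital-anesthetized (i.p.), ventilated adult male rats given saline-dissolved agents i.v.; anterior tibial EMG responses to supramaximal single or train-of-four sciatic/peroneal stimuli, plus 0.1 or 1 Hz stimulation. Doses for 50%, 80%, 90% block derived. Onset: minutes to 80-85% block; RI: 25-75% spontaneous recovery; vagal block, heart rate and blood pressure changes (%) at 80-85% blocking dose.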

[4] = test system: anesthetized rats (evoked responses of anterior tibial muscle); test: Muscle relaxant (neuromuscular blocking) properties, anesthetized rat (Example 9, Table 9); conditions: rat; for % VB at ED80 nmb (vagal block) / BP (change in arterial blood pressure) / HR (change in heart rate): in vivo; for ED50: intravenous dose causing 50% neuromuscular block, spread in brackets; for RI (recovery index): spontaneous recovery, 25-75% neuromuscular response; for Onset: time to 80-85% neuromuscular block
Excerpt: The data on muscle relaxant action were obtained on anesthetized rats, and when indicated, also on juvenile pigs
Adult, male albino rats were anesthetized with pentobarbital injected intraperitoneally. Juvenile, Duroc pigs 9-12 kg body weight were anesthetized with Chloralose Nembutal sodium mixture intraperitoneally after deep sedation with inhaled halothane. The trachea was cannulated for artificial respiration via a small animal respirator. The carotid artery was cannulated for recording blood pressure via a transducer and heart rate by a cardiotachograph on a polygraph. One external jugular vein was cannulated for i.v. drug administration. Neuromuscular function was monitored by electromyography, recording evoked responses from the anterior tibial muscle as a result of supramaximal nerve stimuli consisting of single or “train-of-four” rectangular pulses of 0.1-0.2 msec duration every 10-12 seconds, delivered to the sciatic or common peroneal nerve by a laboratory nerve stimulator. Another mode of stimulation included repeated single stimuli delivered at 0.1 Hz or 1 Hz. […] The agents were dissolved in physiologic saline and injected intravenously at appropriate time intervals. The intensity, onset, and duration of neuromuscular block and its type were determined with each agent. Through administering several doses, the doses corresponding to 50%, 80% and 90% neuromuscular block were determined. All agents were compared with selected standard neuromuscular blocking compounds, e.g., rocuronium.
as §1, §2, §3
HR=change in heart rate, %, at 80-85% neuromuscular blocking dose.
BP=change in arterial blood pressure, %, at 80-85% neuromuscular blocking dose.

Compound	ED50 [1] [mg/kg]	RI (recovery index) [1] [min]	Onset [1] [min]	ΔBP (change in arterial blood pressure) [1] [%]	ΔH (change in heart rate) [1] [%]	ΔBP (change in arterial blood pressure) (rabbits) [%]	ΔH (change in heart rate) (rabbits) [%]	ED50 (rabbits) [mg/kg]	RI (recovery index) (rabbits) [min]	Onset (rabbits) [min]	VB (vagal block) [2] [%]	ΔBP (change in arterial blood pressure) [2] [%]	ΔH (change in heart rate) [2] [%]	ED50 [2] [mg/kg]	RI (recovery index) [2] [min]	Onset [2] [min]	ΔBP (change in arterial blood pressure) (dogs) [%]	ΔH (change in heart rate) (dogs) [%]	ED50 (dogs) [mg/kg]	RI (recovery index) (dogs) [min]	also measured
CC(=O)Oc1ccc(C[N+]2(C)C3CCCC2CC(OC(=O)C2CCC2C(=O)OC2CC4CCCC(C2)[N+]4(C)Cc2ccc(OC(C)=O)c(OC(C)=O)c2)C3)cc1OC(C)=O.[Br-].[Br-] (centres unmarked) [bis[N-(3,4-diacetoxybenzyl)granataninium-3-yl]cyclobutane-1,2-dicarboxylate dibromide]	0.4	0.5	0.6	0	0	0	0	0.115	0.6	0.6	15	0	0	0.1	1	0.8	−5	27	0.15	0.7	Onset (dogs): 0.75 min; ΔBP (change in arterial blood pressure) (anesthetized monkeys): 0%; ΔH (change in heart rate) (anesthetized monkeys): 0%; ED50 (anesthetized monkeys): 0.086 mg/kg; RI (recovery index) (anesthetized monkeys): 0.4 min; Onset (anesthetized monkeys): 0.7 min; VB (vagal block) [3]: 2%; ΔBP (change in arterial blood pressure) [3]: 0%; ΔH (change in heart rate) [3]: 0%; ED50 [3]: 0.133 mg/kg; RI (recovery index) [3]: 0.4 min; Onset [3]: 0.5 min
CC(=O)Oc1ccc(C[N+]2(C)C3CCCC2CC(OC(=O)CCCC(=O)OC2CC4CCCC(C2)[N+]4(C)Cc2ccc(OC(C)=O)c(OC(C)=O)c2)C3)cc1OC(C)=O.[Br-].[Br-] (centres unmarked) [bis[N-(3,4-diacetoxybenzyl)granataninium-3-yl]glutarate dibromide]	0.7	0.4	0.7	−50	0	0	0	0.165	0.55	0.65	40	0	0	0.235	0.9	0.8	−18	50	0.225	0.6	VB (vagal block) [1]: 60%; Onset (dogs): 0.65 min; ΔBP (change in arterial blood pressure) (anesthetized monkeys): 0%; ΔH (change in heart rate) (anesthetized monkeys): 0%; ED50 (anesthetized monkeys): 0.075 mg/kg; RI (recovery index) (anesthetized monkeys): 0.4 min; Onset (anesthetized monkeys): 0.7 min; VB (vagal block) [3]: 0%; ΔBP (change in arterial blood pressure) [3]: 0%; ΔH (change in heart rate) [3]: 0%; ED50 [3]: 0.17 mg/kg; RI (recovery index) [3]: 0.45 min; Onset [3]: 0.6 min
CC(=O)Oc1ccc(C[N+]2(C)C3CCCC2CC(OC(=O)CCCCCCC(=O)OC2CC4CCCC(C2)[N+]4(C)Cc2ccc(OC(C)=O)c(OC(C)=O)c2)C3)cc1OC(C)=O.[Br-].[Br-] (centres unmarked) [bis[N-(3,4-diacetoxybenzyl)granataninium-3-yl]suberate dibromide]	0.7	0.5	0.6	−20	0	0	0	0.475	0.55	0.5	80	0	0	0.25	0.8	0.6	−55	60	0.25	0.45	VB (vagal block) [1]: 80%; Onset (dogs): 0.8 min; ΔBP (change in arterial blood pressure) (anesthetized monkeys): 0%; ΔH (change in heart rate) (anesthetized monkeys): 0%; ED50 (anesthetized monkeys): 0.2 mg/kg; RI (recovery index) (anesthetized monkeys): 0.4 min; Onset (anesthetized monkeys): 0.9 min; VB (vagal block) [3]: 60%; ΔBP (change in arterial blood pressure) [3]: 0%; ΔH (change in heart rate) [3]: 0%; ED50 [3]: 0.45 mg/kg; RI (recovery index) [3]: 0.35 min; Onset [3]: 0.4 min
Bis[N-(4-acetoxy-3,5-dimethoxybenzyl)-6-azabicyclo[3.2.1]octanium-3-yl]glutarate dibromide																					% VB at ED80 nmb (vagal block) [4]: 75 (5) %; BP (change in arterial blood pressure) [4]: +21 (2) %; HR (change in heart rate) [4]: 0%; ED50 [4]: 3050 (193) μg/kg; RI (recovery index) [4]: 1.4 (0.1) min; Onset [4]: 0.75 (0.05) min
Bis[N-(4-acetoxy-3-methoxybenzyl)-6-azabicyclo[3.2.1]octanium-3-yl]-glutarate dibromide																					% VB at ED80 nmb (vagal block) [4]: 68 (96) %; BP (change in arterial blood pressure) [4]: +12 (5) %; HR (change in heart rate) [4]: 0%; ED50 [4]: 1425 (161) μg/kg; RI (recovery index) [4]: 0.65 (0.05) min; Onset [4]: 0.53 (0.04) min
